Measurements published in patent publication US20120184035A1, “Methods and Compositions For Reprogramming Cells” (priority 2011, published 2012).
Entries after “also recorded” stand apart in the source; their conditions may differ.

Test system: 293T cells
Experiment: RT-PCR of muscle specific gene expression in permeabilized 293T cells incubated with cell extracts, with or without transcription modifying agents or conditioned media
Assay type: cell-based, human
Description: A hallmark of a particular cell type is its gene expression profile. Reverse-Transcription of the expressed RNA in a cell, combined with Polymerase Chain Reaction aided amplification of the signal (RT-PCR), was used to detect the expression levels of these genes and provide a method to detect cell reprogramming. This example illustrates RT-PCR assays for detection of muscle specific genes in C2C12 cells (FIG. 5). Total RNA prepared from C2C12 cells at different stages of differentiation (t=0, t=3, t=6) or from 293T cells or HeLa cells were used in an RT-PCR reaction with primers specific to the muscle specific genes, MyoD or Myogenin. […] RT-PCR conditions for the detection of late muscle specific genes Troponin T and Myosin Heavy Chain, and for the hES cell marker Oct-4, were also established. Due to its relatively high sensitivity, gene expression analysis using RT-PCR was used to detect expression of marker genes in permeablized and potentially reprogrammed recipient cells.
Cell extracts were introduced into a recipient cell by reversible permeabilization of recipient cells using the pore-forming, calcium sensitive bacterial toxin Streptolysin O (SLO) and exposure of these cells to reprogramming cell extracts. Limited and transient exposure of cells to low doses of SLO in the absence of calcium ions allows the formation of membrane pores large enough to allow the passive diffusion of proteins up to the size of 100 kilodaltons, but not large enough for organelles. Subsequently, reversal of this membrane permeabilization by adding calcium ions allows the membrane to repair itself and the resealed cells are viable and can proliferate. During the permeabilization process, the recipient cell was incubated with whole cell extracts or nuclear or cytoplasmic extracts of a desired cell type (“donor cell”), and (in some experiments) in the presence of permeabilization/reprogramming promoting agents such as an energy generating system and cytoskeletal disruptors. The whole cell extract is believed to provide regulatory factors that are taken up by the permeabilizing recipient cell. The plasma membrane was then resealed, the cells were allowed to recover and cultured further, in conditions conducive to desired reprogramming. […] The resultant changes in gene expression profiles may arise over time, and may be further promoted by subsequent rounds of treatment with donor cell extract.
Cells were treated with reprogramming extracts (or control 293T “self” extracts) as above.
We next turned to testing the effects of these treatments on reprogramming potential by evaluating reprogramming of 293T or primary NHDF-N cells incubated with cell extracts from the C2C12 muscle differentiating system by gene expression analysis (RT-PCR). In the case of examining the effects of transcription modifying agents, several variations of treatment plans were envisioned. The agents can be applied before or after permeabilizing the cells (or both) and for different durations of time, as long as the cells survive the treatment. Plausibly, different treatment designs could potentially lead to different effects.

[1] = agents applied after priming/permeabilization of C2C12 extract exposed 293T cells, 5-aza 10 uM, SB 10 mM, TSA 10 nM
[2] = agents for 48 hours before permeabilization, 293T self extract

| SMILES | level of MyoD RNA detection [1] | level of MyoD RNA detection (agents for 48 hours before permeabilization, C2C12 extract incubated 293T cells, relative to C2C12 extract alone, listed as TSA) | MyoD expression in cells primed with control self extract (agent applied post priming, 293T self extract) | MyoD expression in cells incubated with control self extract [2] | level of MyoD RNA detection (agents for 48 hours before permeabilization, C2C12 extract incubated 293T cells, relative to C2C12 extract alone) | Troponin T transcript at later timepoints (later timepoints, modifier treated and C2C12 extract incubated 293T cells) | level of MyoD RNA detection (agents applied after priming/permeabilization of C2C12 extract exposed 293T cells, 5-aza 10 uM, SB 10 mM, TSA 10 nM, listed as SB) | level of MyoD RNA detection (agents for 48 hours before permeabilization, C2C12 extract incubated 293T cells, relative to C2C12 extract alone, listed as SB) |
| --- | --- | --- | --- | --- | --- | --- | --- | --- |
| CC(/C=C/C(=O)NO)=C\[C@@H](C)C(=O)c1ccc(N(C)C)cc1 [Trichostatin A] | did not appear to enhance the level of MyoD expression | appeared to enhance the level detection of this RNA; also recorded: enhance the level detection of this RNA slightly | – | – | – | – | – | – |
| Nc1ncn([C@@H]2O[C@H](CO)[C@@H](O)[C@H]2O)c(=O)n1 [5-azacytidine] | did not appear to enhance the level of MyoD expression | – | low level of expression of MyoD | low level of expression of MyoD | appeared to enhance the level detection of this RNA; also recorded: enhance the level detection of this RNA slightly | more abundant and more specific | – | – |
| CCCC(=O)[O-].[Na+] [Sodium Butyrate] | small increase in expression | – | – | low level of expression of MyoD | – | – | did not appear to enhance the level of MyoD expression | appeared to enhance the level detection of this RNA; also recorded: enhance the level detection of this RNA slightly |
